One experiment concerns the target 5-HT2A receptors (UniProt P14842). Kind of experiment: in-vitro affinity to 5-HT2A receptors, [3H]ketanserine displacement (Example A1). In kind it is binding. The source says: The 5-HT2A receptors are exposed both to [^3H]ketanserine (a substance known for its affinity to the receptor) and also to the test compound. The decrease in the affinity of [^3H]ketanserine to the receptor is an indication of the affinity of the test substance to the 5-HT2A receptor.

A further experiment addresses T1, 5 HT2C receptor (Homo sapiens, UniProt P28335).
T1 sequence (P28335 33-458): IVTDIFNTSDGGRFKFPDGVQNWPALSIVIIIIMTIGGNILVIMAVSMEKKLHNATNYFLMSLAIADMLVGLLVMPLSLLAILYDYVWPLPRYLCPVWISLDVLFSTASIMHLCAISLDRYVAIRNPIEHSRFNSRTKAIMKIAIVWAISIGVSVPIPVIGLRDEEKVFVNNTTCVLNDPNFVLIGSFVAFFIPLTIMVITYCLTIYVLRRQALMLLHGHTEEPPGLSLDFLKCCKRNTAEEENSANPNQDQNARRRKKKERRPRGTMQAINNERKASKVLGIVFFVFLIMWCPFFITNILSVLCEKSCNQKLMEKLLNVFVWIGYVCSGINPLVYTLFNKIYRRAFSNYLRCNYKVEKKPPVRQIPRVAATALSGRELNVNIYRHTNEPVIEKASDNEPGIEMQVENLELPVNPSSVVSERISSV
As to the kind of experiment: affinity to the 5 HT2C receptor. It counts as binding.

Experimental findings from US7842695B2, “Substituted pyrazole compounds” (Merck Patent GmbH, priority 2003, dated 2010) are described below.

In general, IC50 refers to the concentration that inhibits the measured activity by half. Lower therefore signals greater potency in that assay. For the molecule `CN1CCN(Cc2cnn(-c3ccc(-c4ccc(Cl)s4)cc3)c2-c2ccccc2F)CC1` [Example 589, 1-[1-[4-(5-Chlorothiophen-2-yl)phenyl]-5-(2-fluorophenyl)-1H-pyrazol-4-ylmethyl]-4-methylpiperazine], the values for the IC50 on 5-HT2A receptors and on 5 HT2C receptor were 0.02 µM and 2.8 µM, respectively.
The like results for `CCN1CCN(Cc2cnn(-c3ccc(-c4ccc5c(c4)OCO5)cc3)c2-c2ccco2)CC1` [Example 533, 1-[1-(4-Benzo-1,3-dioxol-5-ylphenyl)-5-furan-2-yl-1H-pyrazol-4-ylmethyl]-4-ethylpiperazine] were, in that order, 0.0016 µM and 0.224 µM.
Consider `CN1CCN(Cc2cnn(-c3ccc(-c4cc(F)c(OC(F)(F)F)c(F)c4)cc3)c2-c2ccccc2F)CC1` [Example 623, 1-[1-(3′,5′-Difluoro-4′-trifluoromethoxybiphenyl-4-yl)-5-(2-fluorophenyl)-1H-pyrazol-4-ylmethyl]-4-methylpiperazine], for which the IC50 on 5-HT2A receptors was found to be 0.035 µM; against 5 HT2C receptor it was 0.18 µM.
For `CN1CCN(C(=O)c2cnn(-c3ccccc3)c2NC(=O)c2ccccc2F)CC1` [Example 640], in that order: 0.044 µM and 1 µM.
The like results for `CN1CCN(Cc2cnn(-c3ccc(-c4ccc(F)cc4)cc3)c2-c2ccsc2)CC1` [Example 556, 1-[1-(4′-Fluorobiphenyl-4-yl)-5-thiophen-3-yl-1H-pyrazol-4-ylmethyl]-4-methylpiperazine] were, in that order, 0.0078 µM and 0.63 µM.
The like results for `c1coc(-c2c(CN3CCNCC3)cnn2-c2ccc(-c3ccc4c(c3)OCCO4)cc2)c1` [Example 595, 1-{1-[4-(2,3-Dihydrobenzo-1,4-dioxin-6-yl)phenyl]-5-furan-2-yl-1H-pyrazol-4-ylmethyl}piperazine] were, in that order, 0.022 µM and 0.15 µM.
`CN1CCN(Cc2cnn(-c3ccc(-c4ccc(F)cc4)cc3)c2-c2ccco2)CC1` [Example 532, 1-[1-(4′-Fluorobiphenyl-4-yl)-5-furan-2-yl-1H-pyrazol-4-ylmethyl]-4-methylpiperazine]: the values for the IC50 at 5-HT2A receptors and against 5 HT2C receptor were 0.00148 µM and 0.19 µM, respectively.
For `Fc1cccc(-c2ccc(-n3ncc(CN4CCN(C5CCCC5)CC4)c3-c3ccco3)cc2)c1` [Example 605, 1-Cyclopentyl-4-[1-(3′-fluorobiphenyl-4-yl)-5-furan-2-yl-1H-pyrazol-4-ylmethyl]piperazine], in that order: 0.0268 µM and 2.94 µM.
For the molecule `COc1ccc(-c2ccc(-n3ncc(CN4CCN(C)CC4)c3-c3ccccc3F)cc2)cc1F` [Example 585, 1-[1-(3′-Fluoro-4′-methoxybiphenyl-4-yl)-5-(2-fluorophenyl)-1H-pyrazol-4-ylmethyl]-4-methylpiperazine], the IC50 on 5-HT2A receptors worked out at 0.019 µM; at 5 HT2C receptor, 0.76 µM.
As to `Fc1cccc(-c2ccc(-n3ncc(CN4CCNCC4)c3-c3ccco3)cc2)c1` [Example 541, 1-[1-(3′-Fluorobiphenyl-4-yl)-5-furan-2-yl-1H-pyrazol-4-ylmethyl]piperazine], the values for the IC50 on 5-HT2A receptors and against 5 HT2C receptor were 0.0036 µM and 0.15 µM, respectively.
As to `CN(C)Cc1cnn(-c2ccc(-c3ccc4c(c3)OCCO4)cc2)c1-c1ccco1` [Example 540, {1-[4-(2,3-Dihydrobenzo-1,4-dioxin-6-yl)phenyl]-5-furan-2-yl-1H-pyrazol-4-ylmethyl}dimethylamine], the concentration for half-maximal inhibition (IC50) on 5-HT2A receptors is 0.0036 µM; against 5 HT2C receptor, 0.18 µM.
As for `CN1CCN(Cc2cnn(-c3ccc(-c4cccc(F)c4)cc3)c2-c2ccco2)CC1` [Example 559, 1-[1-(3′-Fluorobiphenyl-4-yl)-5-furan-2-yl-1H-pyrazol-4-ylmethyl]-4-methylpiperazine], the figures for the IC50 on 5-HT2A receptors and on 5 HT2C receptor were 0.0088 µM and 0.25 µM, respectively.
The like results for `COc1ccc(-c2c(CN3CCN(CCN(C)C)CC3)cnn2-c2ccc(-c3ccc(F)cc3)cc2)cc1` [Example 607, (2-{4-[1-(4′-Fluorobiphenyl-4-yl)-5-(4-methoxyphenyl)-1H-pyrazol-4-ylmethyl]-1-piperazinyl}ethyl)dimethylamine] were, in that order, 0.029 µM and 1 µM.
The like results for `COc1ccc(-c2ccc(-n3ncc(CN4CCNCC4)c3-c3ccco3)cc2)cc1` [Example 530, 1-[5-Furan-2-yl-1-(4′-methoxybiphenyl-4-yl)-1H-pyrazol-4-ylmethyl]piperazine] were, in that order, 0.0011 µM and 0.2 µM.
The like results for `CN1CCN(Cc2cnn(-c3ccc(-c4ccsc4)cc3)c2-c2ccccc2F)CC1` [Example 574, 1-[5-(2-Fluorophenyl)-1-(4-thiophen-3-ylphenyl)-1H-pyrazol-4-ylmethyl]-4-methylpiperazine] were, in that order, 0.014 µM and 0.52 µM.
As for `CN1CCN(Cc2cnn(-c3ccc(-c4ccc(F)cc4)cc3)c2-c2cccc(Cl)c2)CC1` [Example 619, 1-[5-(3-Chlorophenyl)-1-(4′-fluorobiphenyl-4-yl)-1H-pyrazol-4-ylmethyl]-4-methylpiperazine], the IC50 at 5-HT2A receptors was determined as 0.034 µM; against 5 HT2C receptor it was 1 µM.
The like results for `CCN1CCN(Cc2cnn(-c3ccc(-c4ccc5c(c4)OCCO5)cc3)c2-n2cccc2)CC1` [Example 600, 1-{1-[4-(2,3-Dihydrobenzo-1,4-dioxin-6-yl)phenyl]-5-pyrrol-1-yl-1H-pyrazol-4-ylmethyl}-4-ethylpiperazine] were, in that order, 0.026 µM and 1 µM.
The like results for `CCN1CCN(Cc2cnn(-c3ccc(-c4ccc5c(c4)OCCO5)cc3)c2-c2ccco2)CC1` [Example 557, 1-{1-[4-(2,3-Dihydrobenzo-1,4-dioxin-6-yl)phenyl]-5-furan-2-yl-1H-pyrazol-4-ylmethyl}-4-ethylpiperazine] were, in that order, 0.008 µM and 0.349 µM.
The like results for `COc1ccccc1-c1c(CN2CCN(C)CC2)cnn1-c1ccc(-c2ccccc2F)cc1` [Example 647, 1-[1-(2′-Fluorobiphenyl-4-yl)-5-(2-methoxyphenyl)-1H-pyrazol-4-ylmethyl]-4-methylpiperazine] were, in that order, 0.052 µM and 0.84 µM.
Take `COc1ccc(-c2ccc(-n3ncc(CN4CCN(C)CC4)c3-c3ccco3)cc2)cc1` [Example 546, 1-[5-Furan-2-yl-1-(4′-methoxybiphenyl-4-yl)-1H-pyrazol-4-ylmethyl]-4-methylpiperazine]: the IC50 on 5-HT2A receptors stood at 0.0048 µM; against 5 HT2C receptor, 0.36 µM.
For `Fc1ccc(-c2ccc(-n3ncc(CN4CCC(COc5ccccn5)CC4)c3-c3ccco3)cc2)cc1` [Example 561, 2-{1-[1-(4′-Fluorobiphenyl-4-yl)-5-furan-2-yl-1H-pyrazol-4-ylmethyl]piperidin-4-ylmethoxy}pyridine], the results for the IC50 on 5-HT2A receptors and at 5 HT2C receptor were 0.009 µM and 1 µM, respectively.
The like results for `CN1CCN(Cc2cnn(-c3ccc(-c4cccc(F)c4)cc3)c2-c2ccccc2F)CC1` [Example 549, 1-[1-(3′-Fluorobiphenyl-4-yl)-5-(2-fluorophenyl)-1H-pyrazol-4-ylmethyl]-4-methylpiperazine] were, in that order, 0.0054 µM and 0.46 µM.
For `CN1CCN(Cc2cnn(-c3ccc(-c4cccn4C(=O)OC(C)(C)C)cc3)c2-c2ccccc2F)CC1` [Example 643, tert-Butyl 2-{4-[5-(2-fluorophenyl)-4-(4-methylpiperazin-1-ylmethyl)pyrazol-1-yl]phenyl}pyrrole-1-carboxylate], in that order: 0.048 µM and 0.93 µM.
For `OC1CCN(Cc2cnn(-c3ccc(-c4ccc(F)cc4)cc3)c2-c2cccc(Cl)c2)C1` (stereo not shown) [Example 618, 1-[5-(3-Chlorophenyl)-1-(4′-fluorobiphenyl-4-yl)-1H-pyrazol-4-ylmethyl]pyrrolidin-3-ol], in that order: 0.033 µM and 1 µM.
With `CN1CCN(Cc2cnn(-c3ccc(-c4ccc5c(c4)OCCO5)cc3)c2-c2ccco2)CC1` [Example 535, 1-{1-[4-(2,3-Dihydrobenzo-1,4-dioxin-6-yl)phenyl]-5-furan-2-yl-1H-pyrazol-4-ylmethyl}-4-methylpiperazine], the IC50 on 5-HT2A receptors turned out to be 0.0023 µM; at 5 HT2C receptor, 0.35 µM.
The like results for `CN1CCN(Cc2cnn(-c3ccc(-c4ccc(F)cc4)cn3)c2-c2ccco2)CC1` [Example 590, 1-{1-[5-(4-Fluorophenyl)pyridin-2-yl]-5-furan-2-yl-1H-pyrazol-4-ylmethyl}-4-methylpiperazine] were, in that order, 0.02 µM and 1 µM.
The like results for `c1coc(-c2c(CN3CCN(C4CCCC4)CC3)cnn2-c2ccc(-c3ccc4c(c3)OCCO4)cc2)c1` [Example 554, 1-Cyclopentyl-4-{1-[4-(2,3-dihydrobenzo-1,4-dioxin-6-yl)phenyl]-5-furan-2-yl-1H-pyrazol-4-ylmethyl}piperazine] were, in that order, 0.007 µM and 1.3 µM.
For `Fc1ccc(-c2ccc(-n3ncc(CN4CCN(CCN5CCCC5)CC4)c3-c3ccco3)cc2)cc1` [Example 633, 1-[1-(4′-Fluorobiphenyl-4-yl)-5-furan-2-yl-1H-pyrazol-4-ylmethyl]-4-(2-pyrrolidin-1-ylethyl)piperazine], in that order: 0.041 µM and 1 µM.
Take `CCN(CC)Cc1cnn(-c2ccc(-c3ccc(OC)cc3)cc2)c1-c1ccco1` [Example 601, Diethyl-[5-furan-2-yl-1-(4′-methoxybiphenyl-4-yl)-1H-pyrazol-4-ylmethyl]amine]: the IC50 on 5-HT2A receptors worked out at 0.026 µM; at 5 HT2C receptor, 1 µM.
